# Reference: patent publication US20230190760A1, “ADVANTAGEOUS THERAPIES FOR DISORDERS MEDIATED BY IKAROS OR AIOLOS” (C4 Therapeutics, Inc., priority 2020, published 2023)
# Entries after “also recorded” stand apart in the source; their conditions may differ.
# Tests used:
# [1] = tested on: NCI-H929 multiple myeloma tumors; assay: NCI-H929 multiple myeloma xenograft, NOD SCID mice (Example 31); format: in vivo
# Procedure: Compound 1 was administered QD (every day) orally (PO). […]
# For the NCI-H929 cells, the xenograft study was conducted in female NOD SCID mice bearing NCI-H929 multiple myeloma tumors.
# After the dosing period, tumor growth was monitored for 45 days. […] After the initial 21 days of dosing, all Compound 1 groups were monitored for tumor growth. The 10 μg/kg group was removed from study on 39. The 30 μg/kg group tumors began to regrow, and PO daily dosing resumed starting on day 40 for an additional 23 days. Statistical analysis was performed using two-way analysis of variance (ANOVA). Data are expressed as MTV±SEM.
# NCIH929.1 cells = assay: NCIH929.1 cell viability assay (CellTiter-Glo, GI50); format: cell-based; settings: 96 hr
# [2] = tested on: MM1.S multiple myeloma tumors; assay: Disseminated MM1.S-Luc multiple myeloma model, bioluminescence; format: in vivo, mice; settings: 300 μg/kg QD orally
# Procedure: Compound 1 was administered at 300 μg/kg QD (every day) orally to female NOD SCID mice with disseminated MM1.S multiple myeloma tumors with a measurable MM1.S tumor burden on day 0 and dosed PO daily for 3 weeks. […] Data are expressed as mean BLI±SEM.
# A xenograft study was conducted. Female SCID animals were irradiated with a 200 rads Co60 irradiator source and after 24 hours, animals were inoculated via tail vein injection with 1×107 MM1.S-Luc in 200 μL PBS. Tumor burden was measured twice weekly using imaging analysis. Mice were injected intraperitoneally with 15 mg/mL of D-luciferin and anesthetized with 1-2% isoflurane inhalation. 10 minutes post luciferin injection, mice were imaged using IVIS Lumina II (Perkin Elmer) and total bioluminescence signal (BLI, photons/s) was measured in a region of interest (ROI). BLI from ROI were quantified and used as an indicator of tumor burden. 29 days post tumor cell inoculation mice were randomized into two groups, with 3 mice per group and an average BLI of 17×10^6 photons. FIG. 6 are images of the mice administered Compound 1 compared to the mice administered vehicle. Images were taken on days 4, 7, 11, 14, and 18.
# RPMI-8226 tumors = assay: RPMI-8226 xenograft, crossover from pomalidomide to Compound 1; format: in vivo, mice; settings: 100 μg/kg/day
# Procedure: Vehicle treated animals were treated for 28 days until tumors reached a MTV of 2211 mm^3. […] Data are expressed as MTV±SEM.
# Tumor growth was monitored throughout the study. […] Measurements were twice weekly. The health of the mice was monitored, and noteworthy clinical observations were recorded. Acceptable toxicity was defined as a group's mean BW loss of less than 20% during the study and not more than one treatment related death among ten treated animals, or 10%.
# Animals were weighed on a twice weekly schedule.
# DOHH-2 = assay: Anti-proliferative activity, 96 hours; settings: Homo sapiens, DOHH-2, 96 h
# KARPASS422 = assay: Anti-proliferative activity, 96 hours
# [3] = target: T1, Sal-like protein 4 (SALL4) (Homo sapiens, UniProt Q96SW2+Q9UJQ4); assay: SALL4 degradation in KELLY neuroblastoma cell line; format: cell-based; settings: at 10 nM
# T1 construct: endogenous in cells; host or cells: KELLY neuroblastoma cell line
# T1 sequence (Q9UJQ4 whole entry): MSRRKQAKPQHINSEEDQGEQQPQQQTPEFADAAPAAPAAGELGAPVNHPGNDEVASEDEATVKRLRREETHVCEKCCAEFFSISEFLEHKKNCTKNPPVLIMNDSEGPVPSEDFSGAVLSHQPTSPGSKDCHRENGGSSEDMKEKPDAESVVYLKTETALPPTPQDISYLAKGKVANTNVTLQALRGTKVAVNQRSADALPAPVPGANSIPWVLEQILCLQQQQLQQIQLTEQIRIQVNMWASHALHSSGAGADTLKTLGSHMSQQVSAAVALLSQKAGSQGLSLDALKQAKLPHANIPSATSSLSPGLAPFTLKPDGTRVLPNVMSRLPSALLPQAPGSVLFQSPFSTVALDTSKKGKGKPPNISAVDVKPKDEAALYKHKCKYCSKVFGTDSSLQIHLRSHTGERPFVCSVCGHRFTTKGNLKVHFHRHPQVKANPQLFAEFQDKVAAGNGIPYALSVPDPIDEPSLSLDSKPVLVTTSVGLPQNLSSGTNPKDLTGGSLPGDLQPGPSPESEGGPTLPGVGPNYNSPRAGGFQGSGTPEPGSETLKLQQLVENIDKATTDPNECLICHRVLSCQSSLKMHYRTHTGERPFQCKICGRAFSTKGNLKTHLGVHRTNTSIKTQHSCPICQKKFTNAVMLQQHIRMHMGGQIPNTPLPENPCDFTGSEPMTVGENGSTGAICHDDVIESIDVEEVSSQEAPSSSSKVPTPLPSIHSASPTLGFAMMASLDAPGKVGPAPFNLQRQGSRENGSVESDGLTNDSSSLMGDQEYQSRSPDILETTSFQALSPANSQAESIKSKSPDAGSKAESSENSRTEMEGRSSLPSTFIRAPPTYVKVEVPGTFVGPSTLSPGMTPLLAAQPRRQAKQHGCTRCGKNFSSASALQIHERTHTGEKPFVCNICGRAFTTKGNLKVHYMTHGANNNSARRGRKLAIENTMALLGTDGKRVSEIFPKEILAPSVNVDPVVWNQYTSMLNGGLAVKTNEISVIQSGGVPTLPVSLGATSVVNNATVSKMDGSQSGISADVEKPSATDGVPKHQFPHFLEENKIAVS
# T1 sequence (Q96SW2 whole entry): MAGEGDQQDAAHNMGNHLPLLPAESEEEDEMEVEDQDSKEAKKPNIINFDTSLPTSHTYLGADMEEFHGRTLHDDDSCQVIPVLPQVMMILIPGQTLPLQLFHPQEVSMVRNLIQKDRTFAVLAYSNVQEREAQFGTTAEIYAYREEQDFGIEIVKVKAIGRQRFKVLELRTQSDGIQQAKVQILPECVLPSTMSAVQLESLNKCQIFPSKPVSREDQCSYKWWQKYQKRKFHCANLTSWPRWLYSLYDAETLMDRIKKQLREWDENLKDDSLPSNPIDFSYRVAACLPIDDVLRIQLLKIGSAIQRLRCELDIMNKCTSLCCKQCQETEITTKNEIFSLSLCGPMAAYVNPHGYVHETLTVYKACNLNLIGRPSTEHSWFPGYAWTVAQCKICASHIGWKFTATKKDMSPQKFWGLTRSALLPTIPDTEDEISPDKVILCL
# T1 sequence (Q16531 2-1140 partner limits assumed): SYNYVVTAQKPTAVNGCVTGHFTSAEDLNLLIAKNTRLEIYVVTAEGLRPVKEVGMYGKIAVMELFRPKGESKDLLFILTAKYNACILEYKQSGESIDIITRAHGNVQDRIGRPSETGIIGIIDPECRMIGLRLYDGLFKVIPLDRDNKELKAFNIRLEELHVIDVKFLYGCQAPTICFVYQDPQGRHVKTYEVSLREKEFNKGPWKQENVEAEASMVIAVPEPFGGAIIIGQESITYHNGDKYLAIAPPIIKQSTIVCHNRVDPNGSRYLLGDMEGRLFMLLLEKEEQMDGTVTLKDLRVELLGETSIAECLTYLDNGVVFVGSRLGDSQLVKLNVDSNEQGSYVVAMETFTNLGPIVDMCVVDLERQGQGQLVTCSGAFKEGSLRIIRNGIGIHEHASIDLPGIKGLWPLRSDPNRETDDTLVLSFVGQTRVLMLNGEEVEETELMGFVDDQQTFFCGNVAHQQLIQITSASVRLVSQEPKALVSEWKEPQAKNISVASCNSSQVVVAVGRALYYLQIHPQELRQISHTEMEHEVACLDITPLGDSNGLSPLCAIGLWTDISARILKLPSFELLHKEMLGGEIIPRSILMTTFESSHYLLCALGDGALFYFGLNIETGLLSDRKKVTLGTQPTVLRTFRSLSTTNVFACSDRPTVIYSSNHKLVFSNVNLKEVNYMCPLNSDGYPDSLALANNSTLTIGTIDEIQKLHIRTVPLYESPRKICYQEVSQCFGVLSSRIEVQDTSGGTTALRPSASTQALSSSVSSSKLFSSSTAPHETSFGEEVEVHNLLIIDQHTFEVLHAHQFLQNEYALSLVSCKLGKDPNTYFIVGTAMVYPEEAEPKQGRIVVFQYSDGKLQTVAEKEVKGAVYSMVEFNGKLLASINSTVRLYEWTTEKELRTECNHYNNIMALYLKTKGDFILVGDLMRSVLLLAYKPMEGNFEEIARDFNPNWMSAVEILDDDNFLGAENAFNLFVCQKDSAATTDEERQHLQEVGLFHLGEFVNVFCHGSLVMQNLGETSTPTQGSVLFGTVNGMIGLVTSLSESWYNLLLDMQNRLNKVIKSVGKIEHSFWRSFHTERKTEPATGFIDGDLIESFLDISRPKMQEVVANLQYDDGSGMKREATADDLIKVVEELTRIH
# Procedure: Specific studies were carried out to assess the ability of Compound 1 to degrade Sal-like protein 4 (SALL4), a protein implicated in the teratogenicity induced by the IMiD®s class of IKZF1/IKZF3 degraders.
# IKZF1 and IKZF3 = IKZF1 and IKZF3 in blood cells of a monkey by flow cytometry; format: in vivo, cynomolgus monkey; settings: 30 μg/kg oral gavage, 4-hour and 24-hour timepoint
# Procedure: One fasted male cynomolgus monkey was administered Compound 1 formulated in 1% carboxymethylcellulose sodium+20% PEG400 in citrate buffer at 30 μg/kg by oral gavage. At indicated timepoints, blood was collected from a peripheral vessel from a restrained, non sedated monkey. 50 uL of whole blood was added to a flow tube with 1 ml PBS, centrifuged for 5 minutes at 400×g and supernatant discarded. Blood was lysed in 1 mL of lysis buffer for 10-15 minutes at room temperature, centrifuged for 5 minutes at 400× and supernatant discarded. PBS (1 mL) was added to each tube, centrifuged for 5 minutes at 400×g and supernatant discarded. PBS (1 mL) was added together with 1 ul of Zombie NIR dye to the white blood cells and incubated for 20 minutes at room temperature. The cells were centrifuged for 5 minutes at 400×g and supernatant discarded. Fixation buffer (1 mL) was added and incubated for 20 minutes at room temperature. Cells were washed with permeabilization buffer (1 mL) and centrifuged for 5 minutes at 400×g and supernatant discarded. […] Cells were washed twice with PBS (1 mL), resuspended in PBS and analyzed analyzed on a BD LSR Fortessa Flow Cytometer. FIG. 24 is a graph of the percent mean fluorescence intensity of IKZF1 and IZKF3 at 4 h and 24 hr post dose compared to the pre-dose sample. […]
# WSU-DLCL2 = assay: Anti-proliferative activity, 96 hours; settings: Homo sapiens, WSUDLCL2, 96 h
# IKZF1/3 = assay: Ex vivo IKZF1/3 degradation in PBMC, dog; format: cell-based; settings: dog cells
# Procedure: IKZF1/3 are not degraded in mouse cells treated with thalidomide or its IMiD® analogs because of a single amino acid difference in mouse cereblon compared to human cereblon that causes steric hindrance and prevents recruitment of IKZF1/3. Ex vivo studies were performed in peripheral blood cells (PBMC) of mice, rats, dogs, and monkeys to identify relevant species for IND enabling-toxicity studies based on the degree of IKZF1 degradation by Compound 1. IKZF1 was not degraded in mouse or rat cells by Compound 1, thus, while rat could not be considered a pharmacologically relevant species for human risk assessment, it was chosen as the rodent species for toxicological studies because it is widely used in toxicity testing and a substantial historical toxicology database is available. […] Therefore, cynomolgus monkey was chosen for non-rodent toxicological studies.
smiles,measurement,setting,value
"O=C1CC[C@H](N2C(=O)c3cccc4c(Cc5ccc(CN6CCOCC6)cc5)ccc2c34)C(=O)N1 (single isomer, unassigned) [Compound 1]",tumor volume versus pomalidomide 3000 μg/kg,"[1]; 10, 30 and 100 μg/kg",reduced tumor volume more than pomalidomide
same,Statistical Significance Compared to Vehicle,"[1]; Dose Level (mg/kg) 10, PO QD",<0.0001
same,Statistical Significance Compared to Vehicle,"[1]; Dose Level (mg/kg) 30, PO QD",<0.0001
same,Statistical Significance Compared to Vehicle,"[1]; Dose Level (mg/kg) 100, PO QD",<0.0001
same,GI50,NCIH929.1 cells,0.0743 nM
same,total bioluminescence signal,[2],significantly less than the mice administered vehicle
same,tumor volume after crossover from pomalidomide,RPMI-8226 tumors,rapid tumor regression; also recorded: began to decrease
same,IC50,DOHH-2,2.73 nM
same,IC50,KARPASS422,0.189 nM
same,degradation of SALL4,[3],more than 85%
same,levels of IKZF1 and IKZF3 versus pre-dose,IKZF1 and IKZF3,smaller
same,IC50,WSU-DLCL2,2.8 nM
same,effect on IKZF1/3,IKZF1/3,no effect
